Laboratory results taken from patent US6645984B2, “Arylisoxazoline derivatives, processes for their preparation and their use as pesticides” (Aventis CropScience GmbH, priority 2001, dated 2003).

Test system: Spodoptera litoralis
Experiment: whole plant or invertebrate
Format: in vivo
Conditions: 96 h, read-out: larvae mortality
Procedure: Nutrient medium (freeze-dried cube) is dipped into an aqueous solution of the formulated preparation to be examined and then placed into a Petri dish. Ten L2 larvae of the Egyptian cotton leaf worm (Spodoptera litoralis) are then added. The Petri dish is then closed with a lid. The effect of the preparation on the larvae is determined after 4 days of storage at about 23° C. At a concentration of 500 ppm (based on the content of active compound), the preparations of Example Nos. 5, 9, 12, 28, 29, 30, 35, 39, 40, 41, 42, 43, 45, 46, 48, 52, 63, 87, 90, 91, 92, 94, 97, 98, 99, 100, 103, 107, 113, 117, 120, 125, 566, 567, 573, 574, 589, 600, 613, 614, 619, 626 effect a larvae mortality of 80-100%.

`CC1=NOC(c2ccc(C3COC(c4c(F)cccc4F)=N3)cc2)C1` (stereo not shown) [Example 566, 2-(2,6-Difluorophenyl)-4-(4-(3-methylisoxazolin-5-yl)phenyl)oxazoline] was tested, and the mortality at 500 ppm was 80 to 100%.
